From US8038984B2, “Membrane-permeant peptide complexes for treatment of sepsis” (Washington University, priority 1998, dated 2011)
Numbered stars: 1 amine (or outer) side, 2 acyl side, 3 side chain; on linkers, the order of the positions; unused ones are H or OH. Square brackets hold non-standard residues; d marks the D form. Ends that are not written are not given here. εLys = N[C@@H](CCCCN[*:1])C(=O)[*:2]; D‑k∗gc = not defined here; K∗GC = not defined here; Ahx = NCCCCCC(=O)O

Columns and labels:
[1] = system: human Jurkat leukemia cells; experiment: Cell accumulation (uptake) of Tc-99m-Tat-peptide complexes in Jurkat cells; assay type: cell-based; settings: for Jurkat Cell Uptake: Table 2, radiolabeled (99mTc) peptides, net cell uptake; for effect of inhibitor on net cell uptake of the Tat-peptide metal complex: colchicine 100 ng/ml, taxol 1 μM, nocodozole 5 μg/ml, cytochalasin D 1 μM, brefeldin A 2.5 μg/ml, wortmannin 100 nM; for 20 min Uptake: [99mTc] complexes, 37° C.; for U/W Ratio: uptake/washout ratio
Experimental: Control solution for cell uptake experiments was a modified Earle's balanced salt solution (MEBSS) containing (mM): 145 Na^+, 5.4 K^+, 1.2 Ca^2+, 0.8 Mg^2+, 152 Cl^−, 0.8 H2PO4^−, 0.8 SO4^2−, 5.6 dextrose, 4.0 HEPES, and 1% bovine calf serum (vol/vol), pH 7.4±0.05. A 130 mM K^+/20 mM Cl^− solution was made by equimolar substitution of potassium methanesulfonate for NaCl as described by Piwnica-Worms et al. (J. Gen. Physiol., 81:731-748, 1983).
(§1) Characterization of accumulation of Tc-99m-peptide complex was also performed for nonadherent cell lines such as human Jurkat leukemia cells with minor modifications of methods described in the literature (Bosch et al., Leukemia, 11: 1131-1137, 1997). Transport experiments were performed in siliconized microfuge tubes and initiated by addition of 732.5 μl of cells at 2-3×10^6 cells/ml to 10 μl of buffer containing Tc-99m-peptide complex and 7.5 μl of vehicle alone or of any added drug in vehicle at 100-fold the desired concentration. The tubes were incubated in a 37° C. water bath with occasional mixing. The reaction was terminated by centrifuging 250 μl aliquots from the reaction for 10 seconds through 800 μl of a 75:25 mixture of silicon oil, density=1.050 (Aldrich) and mineral oil, density=0.875 (Acros). An aliquot of the aqueous phase was obtained to normalize extracellular concentration of the complex to cell-associated activity, then the oil and aqueous phases were aspirated and the cell pellet extracted in 0.5 ml of 1% SDS, 10 mM sodium borate. For tracer washout experiments, cells were first incubated to plateau uptake (10 min) in loading buffer (37° C.), collected by rapid centrifugation and the pellet resuspended in 50 ml MEBSS (4° C.) to clear extracellular tracer. Following another rapid spin, the cell pellet was resuspended in isotope-free MEBSS (37° C.) and the experiment terminated as above after various times in warm washout buffer. Radioactivity of the cell pellet, buffers and stocks were determined on a gamma counter (Cobra II, 130-165 keV window) and cell protein was determined by the BCA assay (Pierce). Transport data are reported as fmol Tc-complex (mg protein)^−1 (nM0)^− as previously described, with (nM0)^−1 representing total concentration of peptide conjugate in the extracellular buffer (Piwnica-Worms et al., Circulation, 82: 1826-1838, 1990).
Kinetic experiments of [^99mTc]D-Tat-peptide complexes were performed in Jurkat leukemia cells suspended in MEBSS with minor modification of the methods described in Example 6. Transport experiments were performed in siliconized microfuge tubes and initiated by addition of 732.5 μl of cells at 2-3×10^6 cells/ml to 10 μl of MEBSS containing [^99mTc]D-Tat-peptide complex and 7.5 μl of vehicle alone or of any added drug in vehicle at 100 fold the desired concentration. Unless stated otherwise, [^99mTc]D-Tat-peptide complex was added to MEBSS accompanied by a molar excess of unlabeled D-Tat-peptide as obtained directly from the labeling procedure. The final total peptide concentration was 7 nM to 8 μM (1-2 μCi/ml). The tube were incubated at 37° C. and the reaction terminated as previously described. For peptide washout experiments, cells were first incubated to plateau uptake (20 minutes) in MEBSS loading buffer at 37° C., collected by rapid centrifugation and the pellet resuspended in 50 ml of isotope-free MEBSS at 4° C. to clear extracellular tracer. Following another rapid spin, the cell pellet was resuspended in isotope-free MEBSS at 37° C. for various times and the reaction terminated as described previously. Protein assays and determination of gamma activity were as described in Example 6. Absolute concentration of total [Tc]Tat-peptide complex in solution was determined from the specific activity of Tc, based on equations of Mo/Tc generator equilibrium (Lamson et al., J. Nucl. Med., 16:639-641, 1975). […]

[2] = system: human Jurkat leukemia cells; experiment: Washout of Tc-99m-Tat-peptide complexes from preloaded Jurkat cells; assay type: cell-based; settings: for 30 min Washout: residual activity remaining within the cell 30 minutes after a wash in isotope-free buffer
Experimental: as §1
Kinetic experiments of [^99mTc]D-Tat-peptide complexes were performed in Jurkat leukemia cells suspended in MEBSS with minor modification of the methods described in Example 6. Transport experiments were performed in siliconized microfuge tubes and initiated by addition of 732.5 μl of cells at 2-3×10^6 cells/ml to 10 μl of MEBSS containing [^99mTc]D-Tat-peptide complex and 7.5 μl of vehicle alone or of any added drug in vehicle at 100 fold the desired concentration. Unless stated otherwise, [^99mTc]D-Tat-peptide complex was added to MEBSS accompanied by a molar excess of unlabeled D-Tat-peptide as obtained directly from the labeling procedure. The final total peptide concentration was 7 nM to 8 μM (1-2 μCi/ml). The tube were incubated at 37° C. and the reaction terminated as previously described. For peptide washout experiments, cells were first incubated to plateau uptake (20 minutes) in MEBSS loading buffer at 37° C., collected by rapid centrifugation and the pellet resuspended in 50 ml of isotope-free MEBSS at 4° C. to clear extracellular tracer. Following another rapid spin, the cell pellet was resuspended in isotope-free MEBSS at 37° C. for various times and the reaction terminated as described previously. Protein assays and determination of gamma activity were as described in Example 6. Absolute concentration of total [Tc]Tat-peptide complex in solution was determined from the specific activity of Tc, based on equations of Mo/Tc generator equilibrium (Lamson et al., J. Nucl. Med., 16:639-641, 1975). Transport data are reported as pmol of peptidei (mg protein)^−1 (μM0)^−1, wherein peptidei represents total peptide conjugate within the cells and (nM0)^−1 represents concentration of total peptide conjugate in the extracellular buffer.

1a (GRKKRRQRRR; acetyl; AHA-K*GC chelator, amide) [Conjugate 1a]
Jurkat Cell Uptake ([1]; Jurkat cells): 92.90 ± 21.17 pmol (mg protein)^−1 (μM0)^−1

2b (GRKKRRQRRR; acetyl; AHA-D-k*gc chelator, amide) [Conjugate 2b]
Jurkat Cell Uptake ([1]; Jurkat cells): 50.39 ± 25.73 pmol (mg protein)^−1 (μM0)^−1

4d (Ac-RKKRRQRRR-{Ahx-K∗GC-NH2}; reading uncertain) [Conjugate 4d]
Jurkat Cell Uptake ([1]; Jurkat cells): 90.75 ± 41.04 pmol (mg protein)^−1 (μM0)^−1

5e (Ac-RKKRRQRRR-{Ahx-D‑k∗gc-NH2}; reading uncertain) [Conjugate 5e]
Jurkat Cell Uptake ([1]; Jurkat cells): 48.81 ± 2.91 pmol (mg protein)^−1 (μM0)^−1

8h (RKKRRQRRR-{Ahx-D‑k∗gc-NH2}; reading uncertain) [Conjugate 8h]
Jurkat Cell Uptake ([1]; Jurkat cells): 64.35 ± 1.63 pmol (mg protein)^−1 (μM0)^−1

10j (GRKKRRQRRR; AHA linker, D-k*gc chelator, amide) [Conjugate 10j]
Jurkat Cell Uptake ([1]; Jurkat cells): 106.96 ± 1.55 pmol (mg protein)^−1 (μM0)^−1

12l (RKKRRQRRR; not fully specified; biotin; AHA-K*GC chelator, amide) [Conjugate 12l]
Jurkat Cell Uptake ([1]; Jurkat cells): 51.07 ± 11.78 pmol (mg protein)^−1 (μM0)^−1

28 (Ac-RRRRRRR-{Ahx-D‑k∗gc-NH2}; reading uncertain) [Conjugate 28]
Jurkat Cell Uptake ([1]; Jurkat cells): 34.73 ± 6.99 pmol (mg protein)^−1 (μM0)^−1

30 (Ac-RRRRRRRR-{Ahx-D‑k∗gc-NH2}; reading uncertain) [Conjugate 30]
Jurkat Cell Uptake ([1]; Jurkat cells): 59.02 ± 5.52 pmol (mg protein)^−1 (μM0)^−1

32 (Ac-RRRRRRRRR-{Ahx-D‑k∗gc-NH2}; reading uncertain) [Conjugate 32]
Jurkat Cell Uptake ([1]; Jurkat cells): 129.11 ± 69.01 pmol (mg protein)^−1 (μM0)^−1

COc1cc2c(c(OC)c1OC)-c1ccc(OC)c(=O)cc1[C@@H](NC(C)=O)CC2 [Colchicine, reference compound]
effect of inhibitor on net cell uptake of the Tat-peptide metal complex ([1]; Jurkat cells, data not shown): no significant effect

C[C@H]1CCC/C=C/[C@@H]2C[C@H](O)C[C@H]2[C@H](O)/C=C/C(=O)O1 [brefeldin A, reference compound]
effect of inhibitor on net cell uptake of the Tat-peptide metal complex ([1]; Jurkat cells, data not shown): no significant effect

C=C1[C@@H](C)[C@H]2[C@H](Cc3ccccc3)NC(=O)[C@]23[C@H](OC(C)=O)/C=C/[C@@](C)(O)C(=O)[C@@H](C)C/C=C/[C@H]3[C@@H]1O [cytochalasin D, reference compound]
effect of inhibitor on net cell uptake of the Tat-peptide metal complex ([1]; Jurkat cells, data not shown): no significant effect

COC(=O)Nc1nc2ccc(C(=O)c3cccs3)cc2n1C [nocodozole, reference compound]
effect of inhibitor on net cell uptake of the Tat-peptide metal complex ([1]; Jurkat cells, data not shown): no significant effect

CC(=O)O[C@H]1C(=O)[C@@]2(C)[C@H]([C@H](OC(=O)c3ccccc3)[C@]3(O)C[C@H](OC(=O)[C@H](O)[C@@H](NC(=O)c4ccccc4)c4ccccc4)C(C)=C1C3(C)C)[C@]1(OC(C)=O)CO[C@@H]1C[C@@H]2O [taxol, reference compound]
effect of inhibitor on net cell uptake of the Tat-peptide metal complex ([1]; Jurkat cells, data not shown): no significant effect

COC[C@H]1OC(=O)c2coc3c2[C@@]1(C)C1=C(C3=O)[C@@H]2CCC(=O)[C@@]2(C)C[C@H]1OC(C)=O [wortmannin, reference compound]
effect of inhibitor on net cell uptake of the Tat-peptide metal complex ([1]; Jurkat cells, data not shown): no significant effect

Acetyl- GRKKRRQRRR-AHA- εKGC-amide [Conjugate 1]
20 min Uptake ([1]; Jurkat cells): 77.93 pmol (mg protein)^−1 (μM0)^−1
U/W Ratio ([1]; Jurkat cells): 3.2
30 min Washout [2]: 24.26 pmol (mg protein)^−1 (μM0)^−1

acetyl-GRKKRRORRR-AHA-εKGC-amide(Tc^v-99m) trifluoroacetate [Example 2]
net uptake under isoelectric conditions compared to control buffer ([1]; 130 mM K+/20 mM Cl− and 1 μg/ml valinomycin, data not shown): not decreased
net accumulation in ice-cold buffer ([1]; 4° C., Jurkat cells): only modestly inhibited
time to approach plateau accumulation ([1]; Jurkat cells): ≤ 2 min
time plateau (quasi-steady state) was maintained ([1]; Jurkat cells continuously exposed to the complex): at least 1 hour
Steady-state value of accumulation ([1]; Jurkat cells, n=4): 116±3 fmol (mg protein)^−1 (nM0)^−1
20 min Uptake ([1]; Jurkat cells): 61.73 pmol (mg protein)^−1 (μM0)^−1
in/out ratio ([1]; given a typical cell water space of 4 μl (mg protein)^−1): ~30
extracellular concentration of half-maximal accumulation ([1]; plateau accumulation after 10 minutes, 7 nM to 8 μM, curve fitting): ~3 µM
U/W Ratio ([1]; Jurkat cells): 5.6
cell accumulation complete ([1]; within 2 minutes, extracellular concentration of peptide 950 nM, Jurkat cells): 90%
30 min Washout [2]: 10.99 pmol (mg protein)^−1 (μM0)^−1
residual level of peptide remaining in cells ([2]; slowly exchanging or retaining compartment after washout): < 10 % of peak activity
washout complete ([2]; within 20 minutes, preloaded Jurkat cells): ~90%

acetyl-GRKKRRQRRR-GDEVDG-εKGC-amide (Ac-GRKKRRQRRRGDEVDG[εLys]GC-NH2; SMILES CC(=O)NCC(=O)N[C@@H](CCCNC(=N)N)C(=O)N[C@@H](CCCCN)C(=O)N[C@@H](CCCCN)C(=O)N[C@@H](CCCNC(=N)N)C(=O)N[C@@H](CCCNC(=N)N)C(=O)N[C@@H](CCC(N)=O)C(=O)N[C@@H](CCCNC(=N)N)C(=O)N[C@@H](CCCNC(=N)N)C(=O)N[C@@H](CCCNC(=N)N)C(=O)NCC(=O)N[C@@H](CC(=O)O)C(=O)N[C@@H](CCC(=O)O)C(=O)N[C@H](C(=O)N[C@@H](CC(=O)O)C(=O)NCC(=O)NCCCC[C@H](N)C(=O)NCC(=O)N[C@@H](CS)C(N)=O)C(C)C) [Example 8]
20 min Uptake ([1]; Jurkat cells): 317.92 pmol (mg protein)^−1 (μM0)^−1
U/W Ratio ([1]; Jurkat cells): 6.2
30 min Washout [2]: 50.87 pmol (mg protein)^−1 (μM0)^−1
